Experimental data: PubChem BioAssay (NCI)
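Method: 48-hour compound exposure of cells in 96-well plates, five concentrations, linear interpolation of endpoints. GI50 marks 50% less growth. The concentration for full growth arrest is given as TGI.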

What was measured:
Assay in all cases: growth of human tumour cells (NCI), 48 h
[1] = system: NCI-H522 lung
[2] = system: SF-539 CNS
[3] = system: EKVX NSCLC
[4] = system: RXF 393 renal
[5] = system: HCT-116 colon
[6] = system: HT29 colon
[7] = system: OVCAR-5 ovarian
[8] = system: HOP-62 NSCLC
[9] = system: MDA-MB-231 breast
[10] = system: T-47D breast
[11] = system: MCF7 breast
[12] = system: M14 melanoma
[13] = system: UO-31 renal
[14] = system: OVCAR-8 ovarian
[15] = system: U251 CNS
[16] = system: SF-268 CNS
[17] = system: CCRF-CEM leukemia
[18] = system: NCI-H23 lung
[19] = system: SNB-19 CNS
[20] = system: UACC-257 melanoma
[21] = system: BT-549 breast
[22] = system: HL-60(TB) leukemia
[23] = system: TK-10 renal
[24] = system: NCI-H460 lung
[25] = system: HOP-92 NSCLC
[26] = system: LOX IMVI melanoma
[27] = system: UACC-62 melanoma
[28] = system: MOLT-4 leukemia
[29] = system: OVCAR-3 ovarian

## CC(=O)ON1CCCC(P(=O)(OCCSC(=O)C(C)(C)C)OCCSC(=O)C(C)(C)C)C1=O (stereo not drawn)
[1]
  GI50: 0.659 µM
  TGI: 20.9 µM
[2]
  GI50: 3.96 µM
  TGI: 27.4 µM
[3]
  GI50: 2.1 µM
  TGI: 49.6 µM
[4]
  GI50: 0.764 µM
  TGI: 7.02 µM
[5]
  GI50: 0.613 µM
  TGI: 12.7 µM
[6]
  GI50: 1.28 µM
  TGI: > 100 µM
[7]
  GI50: 6.46 µM
  TGI: > 100 µM
[8]
  GI50: 3.21 µM
  TGI: > 100 µM
[9]
  GI50: 1.34 µM
  TGI: 87.8 µM
[10]
  GI50: 2.08 µM
  TGI: > 100 µM
[11]
  GI50: 2.01 µM
  TGI: 47.5 µM
[12]
  GI50: 2.11 µM
  TGI: 24.9 µM
[13]
  GI50: 0.413 µM
  TGI: 11.3 µM
[14]
  GI50: 0.691 µM
  TGI: > 100 µM
[15]
  GI50: 1.02 µM
  TGI: 64.3 µM
[16]
  GI50: 2.29 µM
  TGI: 60.9 µM
[17]
  GI50: 0.283 µM
  TGI: 67.4 µM
[18]
  GI50: 3.3 µM
  TGI: 28.5 µM
[19]
  GI50: 1.76 µM
  TGI: 21.9 µM
[20]
  GI50: 6.9 µM
  TGI: 81.1 µM
[21]
  GI50: 0.979 µM
  TGI: 7.24 µM
[22]
  GI50: 1.68 µM
  TGI: 11.3 µM
[23]
  GI50: 3.57 µM
  TGI: 93.3 µM
[24]
  GI50: 1.28 µM
  TGI: 19.9 µM
[25]
  GI50: 0.87 µM
  TGI: 31.2 µM
[26]
  GI50: 1.22 µM
  TGI: 95.5 µM
[27]
  GI50: 1.57 µM
  TGI: 8.58 µM
[28]
  GI50: 0.854 µM
  TGI: 11.5 µM
[29]
  GI50: 1.19 µM
  TGI: 20.5 µM
